In the experiment the target is Protein kinase C gamma type (Rattus norvegicus, UniProt P63319). The experiment is described as follows: Inhibition of [3H]phorbol-12,13-dibutyrate (PDBu) binding to rat brain protein kinase C gamma regulatory domain.

SMILES strings stand for the structures.

Usually IC50 stands for the concentration that inhibits the measured activity by half. For the compound `CC(C)[C@H]1C(=O)N[C@H](CO)Cc2c[nH]c3cccc(c23)N1C`, the IC50 amounted to 2.75 µM.

The compound `Cc1ccc2[nH]cc3c2c1N(C)[C@@H](C(C)C)C(=O)N[C@H](CO)C3` returned an IC50 greater than 100 µM.

With `Cc1cc2ccc3[nH]cc4c3c2n1[C@@H](C(C)C)C(=O)N[C@H](CO)C4`, the IC50 is 10 µM.

For `CC(C)[C@H]1C(=O)N[C@H](CO)Cc2c[nH]c3ccc4c(c23)N1[C@H](C)C4`, the IC50 is 1.26 µM.

Take `CC(C)[C@H]1C(=O)N[C@H](CO)Cc2c[nH]c3ccc4c(c23)N1[C@@H](C)C4`: the 50% inhibitory concentration (IC50) was 24 µM.

Source of the values: BindingDB's records for doi:10.7270/Q2GM89G6 (n/a, 1995).
